# Assay results from ChEMBL document CHEMBL4382257, “Identification and Profiling of Hydantoins-A Novel Class of Potent Antimycobacterial DprE1 Inhibitors” (J Med Chem, 2018).
# Experiment: Intrinsic clearance in human liver microsomes at 0.5 uM after 30 mins in presence of NADPH by LC-MS/MS analysis
# Assay type: ADME, Microsome
# Details: 0.5 h
row,CLH,Structure (SMILES)
1,0.49 mL/min/g,CC1(c2ccc(C#N)cc2)NC(=O)N(CC(=O)c2ccc(F)cc2F)C1=O (stereo unspecified)
2,< 0.4 mL/min/g,CC1(c2ccc(OC(F)F)cc2)NC(=O)N(CC(=O)c2ccc(F)cc2F)C1=O (stereo unspecified)
3,< 0.4 mL/min/g,CC1(c2ccc(-n3cnnn3)cc2)NC(=O)N(CC(=O)c2ccc(F)cc2F)C1=O (stereo unspecified)
4,< 0.4 mL/min/g,CC1(c2ccc(Br)cc2)NC(=O)N(CC(=O)c2ccc(F)cc2F)C1=O (stereo unspecified)

# Experiment: physchem
# Details: buffer, pH 7.4, logD
row,chromatographic logD,Structure (SMILES)
1,4.9,CC1(c2ccc(OC(F)F)cc2)NC(=O)N(CC(=O)c2ccc3c(c2)OCO3)C1=O (stereo unspecified)
2,4.68,COc1ccc(-c2cn(CC(=O)c3ccc(F)cc3F)cn2)cc1
3,6.05,CC1(c2ccc(OC(F)(F)F)cc2)NC(=O)N(CC(=O)c2ccc(F)cc2F)C1=O (stereo unspecified)
4,5.43,CCOc1ccc(C2(C)NC(=O)N(CC(=O)c3ccc(F)cc3F)C2=O)cc1 (stereo unspecified)
5,5.05,COc1ccc(C2(C)NC(=O)N(CC(=O)c3ccc(F)cc3F)C2=O)c(F)c1 (stereo unspecified)
6,5.49,CC1(c2ccc(OC(F)F)cc2)NC(=O)N(CC(=O)c2ccc(Cl)s2)C1=O (stereo unspecified)
7,4.99,CCC1(c2ccc(C#N)cc2)NC(=O)N(CC(=O)c2ccc(F)cc2F)C1=O (stereo unspecified)
8,4.59,CC1(c2ccc(OC(F)F)cc2)NC(=O)N(CC(=O)c2cccs2)C1=O (stereo unspecified)
9,4.47,COc1cc(C2(C)NC(=O)N(CC(=O)c3ccc(F)cc3F)C2=O)cc(OC)c1OC (stereo unspecified)
10,4.6,COc1ccc(C2(C)NC(=O)N(CCC(=O)c3ccc(F)cc3)C2=O)cc1 (stereo unspecified)
11,5.06,Cc1ccc(C(=O)CN2C(=O)NC(C)(c3ccc(OC(F)F)cc3)C2=O)s1 (stereo unspecified)
12,3.38,CC1(c2ccc(N)cc2)NC(=O)N(CC(=O)c2ccc(F)cc2F)C1=O (stereo unspecified)
13,5.28,CC1(c2ccc(Cl)cc2)NC(=O)N(CC(=O)c2ccc(F)cc2)C1=O (stereo unspecified)
14,5.03,COc1ccc(C(=O)CN2C(=O)NC(C)(c3ccc(OC(F)F)cc3)C2=O)cc1F (stereo unspecified)
15,5.07,CC1(c2ccc(C#N)cc2)NC(=O)N(CC(=O)C2CCCCC2)C1=O (stereo unspecified)
16,4.45,CC1(c2ccc(OC(F)F)cc2)NC(=O)N(CC(=O)c2nccs2)C1=O (stereo unspecified)
17,4.12,Cc1cc(C(=O)CN2C(=O)NC(C)(c3ccc(OC(F)F)cc3)C2=O)c(C)[nH]1 (stereo unspecified)
18,4.97,CC1(c2ccc(OC(F)F)cc2)NC(=O)N(CC(=O)c2ccccc2)C1=O (stereo unspecified)
19,3.37,CC1(c2ccc(OC(F)F)cc2)NC(=O)N(CC(=O)N2CCCC2)C1=O (stereo unspecified)
20,4.21,CC1(c2ccc(C#N)cc2)NC(=O)N(CC2(c3ccc(F)cc3F)COC2)C1=O (stereo unspecified)
21,4.67,CC1(c2ccc(Br)nc2)NC(=O)N(CC(=O)c2ccc(F)cc2F)C1=O (stereo unspecified)
22,6.01,CC1(c2ccc(C(F)(F)F)cc2)NC(=O)N(CC(=O)c2ccc(F)cc2F)C1=O (stereo unspecified)
23,4.45,COc1ccccc1C(=O)CN1C(=O)NC(C)(c2ccc(C#N)cc2)C1=O (stereo unspecified)
24,5.13,CC1(c2ccc(OC(F)F)cc2)NC(=O)N(CC(=O)c2cccc(F)c2)C1=O (stereo unspecified)

row,chromatographic logD,Structure (SMILES)
1,5.97,Cc1ccc(C)c(C(=O)CN2C(=O)NC(C)(c3ccc(OC(F)F)cc3)C2=O)c1 (stereo unspecified)
2,4.35,CC1(c2ccc(OC(F)F)cc2)NC(=O)N(CC(=O)c2ccccn2)C1=O (stereo unspecified)
3,3.52,CC1(c2ccc(OC(F)F)cc2)NC(=O)N(CC(=O)c2ccncc2)C1=O (stereo unspecified)
4,4.53,COc1ccc(C2(C)NC(=O)N(CC(=O)c3ccc(F)cc3)C2=O)cc1 (stereo unspecified)
5,3.89,CC1(c2ccc(C#N)cc2)NC(=O)N(CC(=O)c2ncc(F)cc2F)C1=O (stereo unspecified)
6,5.35,CC1(c2ccc(Cl)cc2)NC(=O)N(CCC(=O)c2ccc(F)cc2)C1=O (stereo unspecified)
7,3.84,CC1(c2ccc(-n3ccnc3)cc2)NC(=O)N(CC(=O)c2ccc(F)cc2F)C1=O (stereo unspecified)
8,4.72,COc1ccc(C2(C)NC(=O)N(Cc3ccc(F)cc3)C2=O)cc1 (stereo unspecified)
9,5.8,CC1(c2ccc(Br)cc2F)NC(=O)N(CC(=O)c2ccc(F)cc2F)C1=O (stereo unspecified)
10,4.67,CC1(c2ccc(C#N)s2)NC(=O)N(CC(=O)c2ccc(F)cc2F)C1=O (stereo unspecified)
11,5.54,CC1(c2ccc(Cl)cc2)NC(=O)N(CC(=O)c2ccc(F)cc2F)C1=O (stereo unspecified)
12,4.56,CC1(c2ccc(C#N)cc2)NC(=O)N(CCc2ccc(F)cc2)C1=O (stereo unspecified)
13,3.96,COc1ccc(C2(C)NC(=O)N(CC(O)c3ccc(F)cc3F)C2=O)cc1 (stereo unspecified)
14,4.84,COc1ccc(C2(C)NC(=O)N(CCc3ccc(F)cc3)C2=O)cc1 (stereo unspecified)
15,4.54,CC1(c2ccc(C#N)cc2)NC(=O)N(CC(=O)c2ccc(F)cc2F)C1=O (stereo unspecified)
16,5.71,O=C(CN1C(=O)NC2(CCc3cc(Br)ccc32)C1=O)c1ccc(F)cc1F (stereo unspecified)
17,5.72,CC1(c2cccc(Br)c2)NC(=O)N(CC(=O)c2ccc(F)cc2F)C1=O (stereo unspecified)
18,6.31,CC1(c2ccc(C#N)cc2)NC(=O)N(CC(=O)C23CC4CC(CC(C4)C2)C3)C1=O (stereo unspecified)
19,5.3,CC1(c2ccc(C#N)cc2)NC(=O)N(CC(=O)c2cccc(C(F)(F)F)c2)C1=O (stereo unspecified)
20,5.42,COc1ccc(F)cc1C(=O)CN1C(=O)NC(C)(c2ccc(OC(F)F)cc2)C1=O (stereo unspecified)
21,6.64,CCCC1(c2ccc(Br)cc2)NC(=O)N(CC(=O)c2ccc(F)cc2F)C1=O (stereo unspecified)
22,6.57,CC(C)C1(c2ccc(Br)cc2)NC(=O)N(CC(=O)c2ccc(F)cc2F)C1=O (stereo unspecified)
23,4.87,CC1(c2ccc(Br)cn2)NC(=O)N(CC(=O)c2ccc(F)cc2F)C1=O (stereo unspecified)
24,4.5,CC1(c2ccc(C#N)cc2)NC(=O)N(Cc2ccc(F)cc2)C1=O (stereo unspecified)

row,chromatographic logD,Structure (SMILES)
1,6.86,CC1(c2ccc(Br)cc2)CC(=O)N(CC(=O)c2ccc(F)cc2F)C1=O (stereo unspecified)
2,4.39,COc1cccc(C(=O)CN2C(=O)NC(C)(c3ccc(C#N)cc3)C2=O)c1 (stereo unspecified)
3,4.96,COc1cccc(C2(C)NC(=O)N(CC(=O)c3ccc(F)cc3F)C2=O)c1 (stereo unspecified)
4,3.04,CC1(c2ccncc2)NC(=O)N(CC(=O)c2ccc(F)cc2F)C1=O (stereo unspecified)
5,4.84,COc1ccc(C2(C)NC(=O)N(CC(=O)c3ccc(F)cc3F)C2=O)cc1F (stereo unspecified)
6,3.42,CC1(c2ccc(C#N)cc2)NC(=O)N(CC(=O)c2nccs2)C1=O (stereo unspecified)
7,5.36,CC1(c2ccc(OC(F)F)cc2)NC(=O)N(CC(=O)c2ccc(F)cc2F)C1=O (stereo unspecified)
8,5.22,CN1C(=O)N(CC(=O)c2ccc(F)cc2F)C(=O)C1(C)c1ccc(C#N)cc1 (stereo unspecified)
9,3.72,CC1(c2ccc(Cl)cc2)NC(=O)N(C(=O)c2ccc(F)cc2F)C1=O (stereo unspecified)
10,4.4,CC1(c2ccc(C#N)cc2)NC(=O)N(CCC(=O)c2ccc(F)cc2)C1=O (stereo unspecified)
11,4.51,C[C@@]1(c2ccc(C#N)cc2)NC(=O)N(CC(=O)c2ccc(F)cc2F)C1=O
12,4.58,N#Cc1ccc(-c2cn(CC(=O)c3ccc(F)cc3F)cn2)cc1
13,4.03,CC1(c2ccc(OC(F)F)cc2)NC(=O)N(CC(=O)N2CCCCC2)C1=O (stereo unspecified)
14,4.92,COc1ccc(C(=O)CN2C(=O)NC(C)(c3ccc(OC(F)F)cc3)C2=O)cc1 (stereo unspecified)
15,5.23,CC1(c2ccc(OC(F)F)cc2)NC(=O)N(CC(=O)c2ccccc2F)C1=O (stereo unspecified)
16,3.78,CC1(c2ccc(-n3cnnn3)cc2)NC(=O)N(CC(=O)c2ccc(F)cc2F)C1=O (stereo unspecified)
17,5.77,CC(=O)N1C(=O)N(CC(=O)c2ccc(F)cc2F)C(=O)C1(C)c1ccc(C#N)cc1 (stereo unspecified)
18,4.25,CC1(c2ccc(C#N)cc2)NC(=O)N(CC(=O)c2cccc([N+](=O)[O-])c2)C1=O (stereo unspecified)
19,3.67,CC1(c2cccc(NS(C)(=O)=O)c2)NC(=O)N(CC(=O)c2ccc(F)cc2F)C1=O (stereo unspecified)
20,5.59,CC1(c2ccc(Cl)cc2)NC(=O)N(Cc2ccc(F)cc2)C1=O (stereo unspecified)
21,5.17,N#Cc1ccc(-c2cnn(CC(=O)c3ccc(F)cc3F)c2)cc1
22,3.97,CC1(c2ccc(C#N)cn2)NC(=O)N(CC(=O)c2ccc(F)cc2F)C1=O (stereo unspecified)
23,4.78,COc1ccc(C2(C)NC(=O)N(CC(=O)c3ccc(F)cc3F)C2=O)cc1 (stereo unspecified)
24,4.45,CC1(c2ccc(N3CCOCC3)cc2)NC(=O)N(CC(=O)c2ccc(F)cc2F)C1=O (stereo unspecified)

row,chromatographic logD,Structure (SMILES)
1,4.25,COc1ccc(C(=O)CN2C(=O)NC(C)(c3ccc(C#N)cc3)C2=O)cc1 (stereo unspecified)
2,3.91,CC1(c2ccc(OC(F)F)cc2)NC(=O)N(CC(=O)c2ccc[nH]2)C1=O (stereo unspecified)
3,4.26,CC1(c2ccc(C#N)cc2)NC(=O)N(CC(=O)c2ccc(F)cc2)C1=O (stereo unspecified)
4,3.28,CC(=O)Nc1ccc(C2(C)NC(=O)N(CC(=O)c3ccc(F)cc3F)C2=O)cc1 (stereo unspecified)
5,5.68,CC1(c2ccc(Br)cc2)NC(=O)N(CC(=O)c2ccc(F)cc2F)C1=O (stereo unspecified)
6,6.74,CC1(c2ccc(Br)cc2)CCN(CC(=O)c2ccc(F)cc2F)C1=O (stereo unspecified)
7,6.8,O=C(CN1C(=O)NC(c2ccc(Br)cc2)(C(F)(F)F)C1=O)c1ccc(F)cc1F (stereo unspecified)
8,3.94,CC1(c2ccc(C#N)nc2)NC(=O)N(CC(=O)c2ccc(F)cc2F)C1=O (stereo unspecified)
9,5.1,CC1(c2ccc(C#N)cc2)NC(=O)N(CC(F)(F)c2ccc(F)cc2F)C1=O (stereo unspecified)
10,5.5,COc1cc(C2(C)NC(=O)N(CC(=O)c3ccc(F)cc3F)C2=O)ccc1OC(F)F (stereo unspecified)
11,3.43,COc1ccc(C2(C)NC(=O)N(C(=O)c3ccc(F)cc3F)C2=O)cc1 (stereo unspecified)
12,6.17,CCC1(c2ccc(Br)cc2)NC(=O)N(CC(=O)c2ccc(F)cc2F)C1=O (stereo unspecified)
13,4.33,CC1(c2ccc(C#N)cc2)NC(=O)N(C2Cc3cc(F)cc(F)c3C2=O)C1=O (stereo unspecified)
14,5.08,CC1(c2ccc(OC(F)F)cc2)NC(=O)N(CC(=O)c2ccc(F)cc2)C1=O (stereo unspecified)
15,4.51,CC1(c2cccc(C#N)c2)NC(=O)N(CC(=O)c2ccc(F)cc2F)C1=O (stereo unspecified)
16,5.41,Cc1ccc(C2(C)NC(=O)N(CC(=O)c3ccc(F)cc3F)C2=O)cc1 (stereo unspecified)
17,4.51,C[C@]1(c2ccc(C#N)cc2)NC(=O)N(CC(=O)c2ccc(F)cc2F)C1=O
18,5.68,CC1(c2ccc(Cl)cc2)NC(=O)N(CCc2ccc(F)cc2)C1=O (stereo unspecified)
19,3.54,CC1(c2ccc(OC(F)F)cc2)NC(=O)N(CC(=O)c2cccnc2)C1=O (stereo unspecified)
20,3.59,CC1(c2ccc(C#N)cc2)NC(=O)N(CC(=NO)c2ccc(F)cc2F)C1=O (stereo in doubt; 43b)
21,4.72,COc1ccc(C2(C)CN(CC(=O)c3ccc(F)cc3F)C(=O)N2)cc1 (stereo in doubt; 151a)

# Experiment: Intrinsic clearance in mouse liver microsomes at 0.5 uM after 30 mins in presence of NADPH by LC-MS/MS analysis
# Assay type: ADME, Microsome
# Details: 0.5 h
row,CLH,Structure (SMILES)
1,3.52 mL/min/g,CC1(c2ccc(C#N)cc2)NC(=O)N(CC(=O)c2ccc(F)cc2F)C1=O (stereo unspecified)
2,1.78 mL/min/g,CC1(c2ccc(OC(F)F)cc2)NC(=O)N(CC(=O)c2ccc(F)cc2F)C1=O (stereo unspecified)
3,2.44 mL/min/g,CC1(c2ccc(-n3cnnn3)cc2)NC(=O)N(CC(=O)c2ccc(F)cc2F)C1=O (stereo unspecified)
4,1.48 mL/min/g,CC1(c2ccc(Br)cc2)NC(=O)N(CC(=O)c2ccc(F)cc2F)C1=O (stereo unspecified)
